Results published in patent US20220142985A1, “AGENTS FOR TREATMENT OF ALCOHOL USE DISORDER” (SERVICIO ANDALUZ DE SALUD, priority 2018, published 2022).

Columns and labels:
adult male Wistar rats = assay: Alcohol self-administration model; assay type: in vivo, rat; conditions: for EC50 for inhibition of alcohol self-administration: acute administration 30 minutes before the session, 10% alcohol, non-linear regression, IC = confidence interval
Protocol: (§1) For the alcohol self-administration studies, 48 adult male Wistar rats (8 per group) (Harlan, Barcelona, Spain) weighing 375-425 g at the start of the experiments were individually housed in a 12-hour light/dark cycle (turned off at 12:00 p.m.) in a room at constant temperature (23±1° C.). Standard food and tap water were available ad libitum in the house cage. The animals were allowed to acclimate to the housing facilities for 2 weeks before the beginning of the alcohol self-administration protocol. For oxycodone self-administration, male Long-Evans rats (275-325 g) (Charles-River Laboratories, Raleigh, N.C.) were used throughout this study. Upon arrival, they were individually housed in a facility for animals under an inverted 12-h light/dark cycle (light turned on at 7:00 p.m.) with free access to food and water. They were allowed to acclimate to the new environment for at least 7 days before the start of the study. For alcohol consumption in the two-bottle choice paradigm, male Wistar rats weighing 250 g at the start of the experiments, or genetically selected Marchigian Sardinian (msP) male rats that prefer alcohol were used.
Animals were trained for the alcohol self-administration as previously described (Cippitelli et al., 2005. Eur J Neurosci. 21 (8):2243-51), in the room (Letica, model LE 850, Panlab, Barcelona, Spain) enclosed in sound-attenuating cages and equipped with an exhaust fan. The chambers were equipped with two retractable levers, one located on each side of a water pan.
The active lever side is equally distributed between sessions to prevent the development of location preferences. […] All the operant alcohol sessions lasted for 30 minutes per day 5 d/week (Monday to Friday). The amount of responses and the immersion presentations were automatically recorded by the computer software. The animals were weighed daily before the alcohol self-administration sessions. Training was carried out using a modification of the conventional saccharin fading method (Samson et al., 1999) described in Alen et al., 2009 (Nicotine Tob Res. 11 (11): 1304-11). For the first 3 days of training, the animals received a 0.2% saccharin solution in the dipper to facilitate the acquisition of the lever pressure level. After that point, the following sequence in a fixed ratio 1 was used: 0.16% saccharin and 2% alcohol for three sessions, 0.12% saccharin and 4% alcohol for three sessions, 0.08% saccharin and 6% alcohol for four sessions, 0.04% saccharin and 8% alcohol for four sessions, 0.02% saccharin plus 10% alcohol, and finally 10% alcohol alone for the remaining sessions. The first investigation was relatively similar, followed by a period of at least 6 weeks with access to alcohol (10% w/v). ciglitazone (0.01, 1.5, and 20 mg/kg), OEA (0.1, 1.5, and 20 mg/kg), WY 14643 (0.1, 5, 20, and 40) mg/kg), rimonabant (0.03, 0.3, 1, and 3 mg/kg), OLHHA (0.01, 0.1, 1, and 5 mg/kg), and NF 10-360 (1 mg/kg). The medicinal products were injected 30 minutes before the self-administration session. The animals were then left for a period of 24 hours, and then 30 minutes daily. The EtOH self-administration sessions were resumed and monitored.
(§2) GraphPad Prism v5.04 (GraphPad Software, San Diego, Calif., USA). Data was represented by means±SEM. EC50 values for the inhibition of alcohol, cocaine, or oxycodone self-administration were calculated using built-in non-linear regression equations. Supplementation with alcohol and the analysis of the effects of variability (ANOVA) with repeated measures (factors: treatment and treatment). Plasma metabolic parameters, cytokines, and liver mRNA resulting from the circulation expression were analyzed by means of a two-way ANOVA (factors: treatment (vehicle/OLHHA) and access to beverage ([…]/water)), and a multiple post hoc comparison test (Bonferroni) was performed. The p-value less than 0.05 was considered to be statistically significant.

[1] = tested on: Marchigian Sardinian (msP) male rats; assay: Alcohol consumption in the two-bottle choice model (msP rats that prefer alcohol, 20% alcohol); assay type: in vivo, rat; conditions: 5 mg/kg daily
Protocol: as §1
(§3) Voluntary alcohol intake was evaluated in a two-bottle choice test, as previously described [Stopponi et al., 2011. Biol Psychiatry. 69(7):642-]. Wistar rats or rats selected due to their alcohol preference (msP) were trained to drink water, 10% alcohol (v/v) (Wistar), or 20% alcohol (msP) for 24 hours per day until reaching a stable alcohol intake baseline. At this point, the rats were divided into different groups (n=9-10/group) to be treated with vehicle, NF 10-360 (0 or 1 mg/kg), or OLHHA (5 mg/kg). In the case of msP rats, treatment with OLHHA continued for 14 consecutive days, and the drug or vehicle was administered once a day before the start of the dark period of the light/dark cycle. Intakes were recorded daily 2, 8, and 24 hours after the administration of OLHHA. Alcohol, water, and food intake were monitored daily. The animals were sacrificed on day 14, 2 hours after the last administration of OLHHA.

[2] = tested on: liver mRNA of lipogenic enzymes, cytochrome c oxidase 4 and PPARα; assay: Liver mRNA expression by RT qPCR after repeated OLHHA in msP rats; assay type: in vivo, rat; conditions: 5 mg/kg daily
Protocol: as §3
(§4) The rats were sacrificed 2 hours after the last dose. Treated animals and animals treated with OLHHA were anesthetized with sodium pentobarbital (50 mg kg-1, i.p.), and blood and liver samples were taken. The blood was centrifuged (2100 g for 8 min, 4° C.) and the plasma was kept for later analysis. The liver samples were rapidly frozen in liquid N^2 and stored at −80° C. until analysis.
Real-time quantitative polymerase chain reaction (RT qPCR) was used to measure the relative quantification of the mRNA levels of the enzymes and proteins related to the oxidation of hand lipogenic fatty acids, as described in previous studies with OLHHA. [Decara et al., 2015. Dis Model Mech. 8(10): 1213-25]. Total mRNA was isolated using the Trizol® method according to the manufacturer's instructions (Gibco BRL Life Technologies, Baltimore, Md., USA). Resulting cDNA was used as templates for RT qPCR with an iCycler system (BioRad) using the Quanti-Test SYBR Green PCR kit (Qiagen, Hilden, Germany). The […] were provided by Sigma-Proligo (Proligo France SAS, Paris, France). Quantification was performed according to the following criteria [Decara et al., 2015. Dis Model Mech. 8(10): 1213-25]. The absolute values of each sample were normalized to observe β-actin mRNA (constitutive gene), which was used as a standard reference.
GraphPad Prism v5.04 (GraphPad Software, San Diego, Calif., USA). Data was represented by means±SEM. EC50 values for the inhibition of alcohol, cocaine, or oxycodone self-administration were calculated using built-in non-linear regression equations. […] Plasma metabolic parameters, cytokines, and liver mRNA resulting from the circulation expression were analyzed by means of a two-way ANOVA (factors: treatment (vehicle/OLHHA) and access to beverage ([…]/water)), and a multiple post hoc comparison test (Bonferroni) was performed. […]

[3] = Plasma metabolite and cytokine measurements after repeated OLHHA in msP rats; assay type: in vivo; conditions: 5 mg/kg daily
Protocol: as §3, §4
The following metabolites, metabolic hormones, and cytokines were measured in plasma: metabolites glucose, triglycerides, cholesterol, uric acid, urea, creatinine, aspartate transaminase (GOT), alanine transaminase (GPT), interleukin-6, tumor necrosis factor α (TNF-a). They were analyzed in an automatic Hitachi 737 analyzer (Hitachi, Tokyo, Japan) according to the manufacturer's instructions. Levels of leptin, IL-6, and TNF-α were measured using commercial rat enzyme-linked immunosorbent assay kits (Abcam, Cambridge, United Kingdom).
as §2

Long-Evans rats = assay: Oxycodone self-administration; assay type: in vivo, rat; conditions: FIG. 3G
Protocol: as §1, with “used. […]” for “used.”
Oxycodone self-administration is carried out in an operant chamber with two response levers and a 15 W house light (Med Associates Inc., Georgia, Vt., USA). […] The response of each animal has been recorded throughout the entire training and testing process. […]

Wistar rats = assay: Alcohol consumption in the two-bottle choice model (Wistar rats, 10% alcohol); assay type: in vivo, rat; conditions: 1 mg/kg, P<0.05, FIG. 2A
Protocol: as §1
Voluntary alcohol intake was evaluated in a two-bottle choice test, as previously described [Stopponi et al., 2011. […] Intakes were recorded daily 2, 8, and 24 hours after the administration of OLHHA. Alcohol, water, and food intake were monitored daily. […]

## CCCCCCCC/C=C\CCCCCCCC(=O)NC(C)Cc1ccc(O)c(O)c1 (stereo not drawn) [OLHHA, N-[1-(3,4-dihydroxyphenyl)propan-2-yl]oleamide]
Adult male Wistar rats; 24 hours after administration, FIG. 3B
  alcohol self-administration tested 24 hours after administration: absence of effects
Adult male Wistar rats
  EC50 for inhibition of alcohol self-administration: 0.2 mg/kg
[1]; 14 days, P<0.05, FIG. 3F
  total alcohol intake recorded throughout treatment: reduced significantly
[1]; P<0.0001, FIG. 3C
  alcohol intake 2 hours after injection: reduced alcohol intake
[1]; P<0.001, FIG. 3D
  alcohol intake 8 h after administration: also observed
[1]; P=0.047, FIG. 3E
  alcohol intake after 24 h: virtually disappeared
[2]; P<0.001, FIG. 4M
  expression of mRNA of Fasn in liver: inhibited
[2]; P<0.001, FIG. 4O
  expression of PPAR receptor in liver: increased
[2]; P<0.01
  expression of mRNA of SCD1 in liver: inhibited
[2]; P<0.01, FIG. 4N
  expression of cytochrome c oxidase 4 in liver: increased
[3]; msP rats, FIG. 4F
  toxicity: creatinine: no impact
[3]; msP rats, FIG. 4I
  inflammation: plasma concentrations of IL-6: no effect
[3]; msP rats, FIG. 4J
  inflammation: plasma concentrations of TNF: no effect
[3]; msP rats, FIGS. 4G and 4H
  toxicity: transaminases: no impact
[3]; msP rats, P<0.001, FIG. 4B
  circulating triglycerides: reduced
[3]; msP rats, P<0.001, FIG. 4C
  circulating cholesterol: reduced
[3]; msP rats, P<0.01, FIG. 4D
  circulating uric acid: reduced
[3]; rats exposed to alcohol, P<0.02, FIG. 4A
  glucose levels: slightly reducing
Long-Evans rats
  maximum inhibition of oxycodone self-administration: 45 % of the control responses
Long-Evans rats; non-linear regression, IC = confidence interval
  EC50 for reduction of oxycodone self-administration: 11.3 mg/kg

## CC1(COc2ccc(CC3SC(=O)NC3=O)cc2)CCCCC1 (stereo not drawn) [ciglitazone]
Adult male Wistar rats
  EC50 for inhibition of alcohol self-administration: 5.9 (IC=2.7 to 15.7) mg/kg

## Cc1c(C(=O)NN2CCCCC2)nn(-c2ccc(Cl)cc2Cl)c1-c1ccc(Cl)cc1 [Rimonabant, rimonabant]
Adult male Wistar rats
  EC50 for inhibition of alcohol self-administration: 0.5 (IC=0.5 to 1.1) mg/kg
Adult male Wistar rats; reference ligands, FIG. 1
  maximum inhibition of alcohol self-administration (rank among reference ligands): achieved maximum inhibition

## CCCCCNC(=O)c1ccc(NC(=O)c2cccc(CN3C(=O)OC[C@H]3Cc3ccccc3)c2)cc1 [NF 10-360, 3-((4-benzyl-2-oxooxazolidin-3-yl)methyl)-N-(4-(pentylcarbamoyl)phenyl)benzamide]
Wistar rats
  voluntary alcohol intake: reduced alcohol intake
Adult male Wistar rats; 1 mg/kg, P<0.01, FIG. 2B
  operant responses to a 10% ethanol solution (alcohol self-administration): reduced operant responses

## CCCCCCCC/C=C\CCCCCCCC(=O)NCCO [OEA, oleoylethanolamide]
Adult male Wistar rats
  EC50 for inhibition of alcohol self-administration: 6.5 (IC=3.2 to 13.2) mg/kg

## Cc1cccc(Nc2cc(Cl)nc(SCC(=O)O)n2)c1C [WY14643, pirinixic acid]
Adult male Wistar rats
  EC50 for inhibition of alcohol self-administration: 23.6 (IC=11.3 to 60.9) mg/kg
